In paper PMC4977052, “On the Utility of ToxCast™ and ToxPi as Methods for Identifying New Obesogens” (Environmental Health Perspectives, 2016):
Read-outs that look alike come from different tables or passages of the source.

Experiments:
[1] = target: T1, GAL4-mPPARγ (Mus musculus, UniProt P37238); assay: GAL4-mPPARγ activation, transient transfection luciferase reporter in COS7 cells; assay type: cell-based; details: for Activation COS7 (result in words), ToxPi chemicals: PPARγ or RXRα activation assays (Table 2)
T1 construct: expressed in transfected cells; host or cells: COS7
Protocol: pCMX-Gal4, pCMX-Gal4-mPPARγ, and pCMX-Gal4-hRXRα were previously described ([Grün et al. 2006]). Transient transfections were performed in COS7 cells as described ([Chamorro-García et al. 2012]). Briefly, COS7 cells were seeded at 15,000 cells per well in 96-well tissue culture plates in 10% calf bovine serum. The following day, cells were transfected in Opti-MEM at ~ 90% confluency. One microgram of CMX-GAL4 effector plasmid was co-transfected with 5 μg tk-(MH100)4-luciferase reporter and 5 μg of CMX-β-galactosidase transfection control plasmids in Opti-MEM® using Lipofectamine® 2000 reagent (Invitrogen™ Life Technologies, Carlsbad, CA, USA), following the manufacturer’s recommended protocol. All chemicals were solvated in dimethyl sulfoxide (DMSO). After overnight incubation, the medium was replaced with Dulbecco’s Modified Eagle Medium (DMEM; HyClone, Logan, UT, USA), 10% resin charcoal stripped fetal bovine serum (FBS) plus ligands at concentrations indicated in the figure legends for an additional 24 hr. DMSO concentration was maintained at 0.05% across all chemical treatments. Cells were lysed and assayed for luciferase and β-galactosidase activity as previously described ([Forman et al. 1995]). All transfections were performed in triplicate and reproduced in multiple experiments. Data are reported as fold induction or reduction over vehicle ([…]) controls ± SEM (standard error of the mean) using standard propagation of error ([Bevington and Robinson 2003]). […] The EC50, EC10, IC50, and IC10 values from NCGC and ToxCast™ are reported from gain AC50 and AC10 values in the ToxCast™ 2014 release ([Filer et al. 2014]).
Figure 1 ToxCast™ Chemical Activity on PPARγ. The ability of a graded dose series of ToxCast™ chemicals to (A) activate or (B) antagonize GAL4-mPPARγ was tested in transiently transfected COS7 cells. (A, B) Data points are averages of triplicate transfections (three biological replicates). […] Data are depicted as (A) fold induction or (B) reduction over vehicle (0.05% DMSO) controls ± SEM. (A) ToxCast™ chemicals were tested in 3-fold serial dilutions from 100 μM through 0.137 μM, with the final data point being 0.05% DMSO. Rosiglitazone serves as a positive control activator. (B) ToxCast™ chemicals were tested in 3-fold serial dilutions from 100 μM, in competition with 50 nM rosiglitazone (Rosi). […] (C) EC50, EC10, IC50, and IC10 values calculated from A and B are reported and compared to commercial assays (see Figure S1). Note: ATG, Attagene GAL-PPARγ activation assay; NCGC, GeneBLAzer® agonist (EC values) or antagonist (IC values) assays. Triphenyltin was previously published ([Kanayama et al. 2005]).
Figure 4 ToxPi Chemical Activity on PPARγ and RXRα. The ability of a graded dose series of ToxPi chemicals to activate (A) GAL4-mPPARγ or (B) GAL4-hRXRα was tested in transiently transfected COS7 cells. (A, B) Data points are averages of triplicate transfections (three biological replicates). […] ToxPi chemicals were tested in 3-fold serial dilutions from 100 μM through 0.137 μM, with the final data point being 0.05% DMSO. Data are depicted as fold induction over vehicle (0.05% DMSO) controls ± SEM. (A) Rosiglitazone serves as a positive control activator for GAL4-mPPARγ. (B) LG100268 (2-[1-(3,5,5,8,8-Pentamethyl-5,6,7,8-tetrahydro-2-naphthyl)cyclopropyl]pyridine-5-carboxylic acid) serves as a positive control activator for GAL4-hRXRα. (C) EC50 and EC10 values calculated from A and B are reported and compared to other assays (see Figure S1). ATG, Attagene GAL-PPARγ or GAL-RXRα activation assay; NCGC, GeneBLAzer® GAL-PPARγ or GAL-RXRα activation assays. Triphenyltin was previously published ([Kanayama et al. 2005]).

[2] = tested on: 3T3-L1 preadipocytes; assay: 3T3-L1 adipogenesis assay (lipid accumulation, adipogenic gene expression); assay type: cell-based; details: 0.02-20 μM, 5 days after MDI induction
Protocol: 3T3-L1 cells (ATCC) were maintained in high-glucose DMEM supplemented with 10% fetal bovine serum, 2 mM L-glutamine, 50 IU/mL penicillin, and 50 μg/mL streptomycin. A total of 2 × 10^4 cells per well were seeded in 12-well plates. After 48 hr, cells were exposed to the adipogenic cocktail MDI (500 μM isobutylmethylxanthine, 0.25 nM dexamethasone and 5 μg/mL insulin), 8 μg/mL biotin and 8 μg/mL pantothenate for 2 days. Induction media was removed and cells were exposed to test chemicals during 5 days, replacing the media every 2 days. Rosiglitazone (ROSI) and tributyltin (TBT) were used as positive controls at 100 nM and 50 nM final concentrations, respectively. All ToxCast™ chemicals were tested at 0.02, 0.2, 2, and 20 μM, and DMSO concentration was maintained at 0.1% across all treatments. If the chemical was toxic at 20 μM, we repeated the experiment at 10 μM.
Cells were either fixed in 3.7% formaldehyde in phosphate-buffered saline (PBS) for 30 min at room temperature (RT) for lipid quantitation, or homogenized in TriPure (Roche, Mannheim, Germany) for gene expression analysis. For lipid quantitation, fixed cells were washed twice with PBS and maintained in PBS overnight at 4°C to release residual phenol red. Background of cells were measured prior to staining. Cells were stained with 1 μg/mL Nile red (CAS No. 7385-67-3) (to detect lipid accumulation) and 1 μg/mL Hoechst 33342 (ThermoFisher Scientific) (to detect nuclei as a surrogate for cell number) in PBS for 15 min in the dark at RT and washed twice with PBS. […] Background values of Hoechst and Nile red were subtracted from the RFUs after staining and the ratio RFUNile Red:RFUHoechst was calculated. Data are represented as mean ± SEM. Total RNA was isolated using TriPure (Roche) as recommended by the manufacturer. Reverse transcription and quantitative real-time RT-PCR (QPCR) were performed using Transcriptor RT and SYBR® Green Master Mix (Roche). cDNA was quantitated in a LightCycler® 480 System (Roche Diagnostics, Basel, Switzerland) using primer sets listed in Table S4. Each primer set amplified a single band as determined by gel electrophoresis and melting curve analysis. QPCR data were analyzed using the 2^ΔΔCt method ([Livak and Schmittgen 2001]) relative to ribosomal protein 36b4, normalizing to 0.1% DMSO vehicle. Error bars represent the SEM from four to six biological replicates calculated using standard propagation of error ([Bevington and Robinson 2003]).

[3] = tested on: PPARγ; details: cited from earlier work
[4] = tested on: PPARγ; details: ref Filer et al. 2014, cited from earlier work
[5] = tested on: Human PPARγ; details: cited from earlier work
[6] = tested on: PPARγ; design: method as in Filer et al. 2014; details: PPARγ; NA = not active; ref Filer et al. 2014; read-out: NCGC Antag. AC50, 2014 Release; cited from earlier work
[7] = ToxCast 2014 release, ref Filer et al. 2014, read-out: Attagene AC50 (panel A, w/o Z-Score Correction ranking)
[8] = Cos-7 transient transfection, PPARγ activation or antagonism assays (Table 1, Table S6)
[9] = PPARγ, NA = not active, ref Filer et al. 2014, read-out: ATG Agonist AC50, 2014 Release
[10] = PPARγ, NA = not active, ref Knudsen et al. 2011, read-out: ATG Agonist AC50, 2011 Release

T1 sequence (P37238 with tags, fused parts or gaps limits assumed): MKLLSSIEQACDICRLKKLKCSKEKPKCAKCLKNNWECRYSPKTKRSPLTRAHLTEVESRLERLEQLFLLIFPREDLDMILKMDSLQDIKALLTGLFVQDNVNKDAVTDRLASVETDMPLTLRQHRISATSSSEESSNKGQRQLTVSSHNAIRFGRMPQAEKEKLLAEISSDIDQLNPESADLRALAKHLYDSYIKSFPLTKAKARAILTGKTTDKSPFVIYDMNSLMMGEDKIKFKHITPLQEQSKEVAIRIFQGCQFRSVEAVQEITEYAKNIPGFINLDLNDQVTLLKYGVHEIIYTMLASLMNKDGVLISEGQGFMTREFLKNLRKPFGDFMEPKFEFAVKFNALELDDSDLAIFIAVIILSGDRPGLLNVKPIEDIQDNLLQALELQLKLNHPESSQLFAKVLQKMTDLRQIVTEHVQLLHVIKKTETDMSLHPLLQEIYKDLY

SMILES	Activation COS7 (result in words), ToxPi chemicals ([1]; Cos-7 transient transfection)	Adipogenesis 3T3-L1 (result in words) [2]	AC50 [6]	AC50 [3, 9]	AC50 [3, 10]	further results
CNC(=O)/C=C(\C)OP(=O)(OC)OC [Monocrotophos]	Inactive	Negative				AC50 [3, 7]: 2.2 µM; AC50 ([4]; ToxCast 2014 release, read-out: Tox21/NCGC AC50 (panel A)): 67.5 µM; AC50 ([5]; direct binding, ToxCast 2014 release, ref Filer et al. 2014, read-out: NovaScreen AC50 (panel A)): 20.8 µM
O=C(Nc1ccc([N+](=O)[O-])cc1Cl)c1cc(Cl)ccc1O [Niclosamide]			35.9 µM	0.56 µM	0.56 µM	Activation COS7 (result in words), ToxCast PPARγ list [1, 8]: Inactive; AC50 [3, 7]: 0.6 µM; AC50 ([4]; PPARγ, NA = not active, read-out: NCGC Agonist AC50, 2014 Release): 29.9 µM
O=S(=O)(O)C(F)(F)C(F)(F)C(F)(F)C(F)(F)C(F)(F)C(F)(F)C(F)(F)C(F)(F)F [PFOS, perfluorooctanesulfonic acid]	Inactive	Negative				AC50 ([3]; ToxCast Phase I 2011 release, NA = not active, ref Knudsen et al. 2011, read-out: ATGT PPARγ AC50): 26 µM; AC50 ([5]; direct binding, ToxCast Phase I 2011 release, NA = not active, ref Knudsen et al. 2011, read-out: NVS PPARγ AC50): 16 µM
CCCN(CCOc1c(Cl)cc(Cl)cc1Cl)C(=O)n1ccnc1 [Prochloraz]			81.5 µM		3.5 µM	Activation COS7 (result in words), ToxCast PPARγ list [1, 8]: Inactive; AC50 ([5]; PPARγ direct binding, NA = not active, ref Filer et al. 2014, read-out: NVS Agonist AC50, 2014 Release): 27.5 µM
CC1=NNC(=O)N(/N=C/c2cccnc2)C1 [Pymetrozine]	Inactive	Positive				Adipogenesis 3T3-L1 (result in words) ([2]; listed as pymetrozine): promoted adipogenesis
COC(=O)N(OC)c1ccccc1COc1ccn(-c2ccc(Cl)cc2)n1 [Pyraclostrobin]			0.7 µM	0.61 µM	0.76 µM	Activation COS7 (result in words), ToxCast PPARγ list [1]: Inactive
CCc1ccc(C(=O)NN(C(=O)c2cc(C)cc(C)c2)C(C)(C)C)cc1 [Tebufenozide]			50.8 µM	7.6 µM	6.3 µM	Activation COS7 (result in words), ToxCast PPARγ list [1]: Inactive
